For assay [1], the system named is genotype 1b (Con-1) HCV replicon in Huh-7 cells. The experiment in a line: HCV replicon luciferase assay. The conditions noted are these: 1b replicon, Huh-7, Renilla luciferase, 3 days incubation. The assay is classed as cell-based. A digest of the protocol: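 Huh-7 cells carrying Con-1 genotype 1b replicon with Renilla luciferase reporter seeded onto titrated compound in DMEM, 4% FBS, 0.5% DMSO, 3 days at 37 °C. Luciferase read with EnduRen substrate (7.5 μM final) after ≥1 h; EC50 by four-parameter logistic fit.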
On the technique in general: Replicon systems follow genome replication, usually without infectious particles.

The target of assay [2] is T1, NS5B proteins of HCV genotype 1b (Con1) (Hepatitis C virus genotype 1b, UniProt Q9WMX2).
T1 construct: Each untagged protein was expressed with an 18 amino acid C-terminal truncation to enhance the solubility; made in house; host or cells: E. coli BL21(DE3), pET21a
T1 sequence (Q9WMX2 2420-2992): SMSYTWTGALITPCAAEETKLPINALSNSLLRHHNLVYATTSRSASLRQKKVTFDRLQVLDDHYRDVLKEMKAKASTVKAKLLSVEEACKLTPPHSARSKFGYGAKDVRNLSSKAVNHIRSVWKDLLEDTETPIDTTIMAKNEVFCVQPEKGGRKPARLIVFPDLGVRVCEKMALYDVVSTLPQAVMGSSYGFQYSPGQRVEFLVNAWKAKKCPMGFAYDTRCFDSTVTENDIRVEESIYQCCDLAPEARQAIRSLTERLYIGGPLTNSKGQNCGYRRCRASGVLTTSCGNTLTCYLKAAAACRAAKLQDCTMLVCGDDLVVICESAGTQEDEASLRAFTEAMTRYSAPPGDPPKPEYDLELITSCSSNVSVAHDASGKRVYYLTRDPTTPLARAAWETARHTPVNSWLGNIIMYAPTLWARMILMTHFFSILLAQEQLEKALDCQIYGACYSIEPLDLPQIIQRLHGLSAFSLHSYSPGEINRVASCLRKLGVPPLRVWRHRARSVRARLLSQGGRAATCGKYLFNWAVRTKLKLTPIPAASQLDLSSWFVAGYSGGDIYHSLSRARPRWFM
The experiment in a line: HCV NS5B RdRp enzyme assay. The class given is biochemical. The conditions noted are these: 1b enzyme. The method, then:
HCVNS5B RdRp Cloning, Expression, and Purification.
The cDNA encoding NS5B proteins of HCV genotype 1b (Con1), a genotype 1b variant with amino acid 316 mutated from cysteine to asparagine, and genotype 2a (JFH-1), were cloned into the pET21a expression vector. Each untagged protein was expressed with an 18 amino acid C-terminal truncation to enhance the solubility. The E. coli competent cell line BL21(DE3) was used for expression of the protein. Cultures were grown at 37° C. for ˜4 hours until the cultures reached an optical density of 2.0 at 600 nm. The cultures were cooled to 20° C. and induced with 1 mM IPTG. Fresh ampicillin was added to a final concentration of 50 μg/mL and the cells were grown overnight at 20° C.
Cell pellets (3 L) were lysed for purification to yield 15-24 mgs of purified NS5B. The lysis buffer consisted of 20 mM Tris-HCl, pH 7.4, 500 mM NaCl, 0.5% triton X-100, 1 mM DTT, 1 mM EDTA, 20% glycerol, 0.5 mg/mL lysozyme, 10 mM MgCl2, 15 ug/mL deoxyribonuclease I, and Complete TM protease inhibitor tablets (Roche). After addition of the lysis buffer, frozen cell pellets were resuspended using a tissue homogenizer. To reduce the viscosity of the sample, aliquots of the lysate were sonicated on ice using a microtip attached to a Branson sonicator. The sonicated lysate was centrifuged at 100,000×g for 30 minutes at 4° C. and filtered through a 0.2 μm filter unit (Corning).
The protein was purified using two sequential chromatography steps: Heparin sepharose CL-6B and polyU sepharose 4B. The chromatography buffers were identical to the lysis buffer but contained no lysozyme, deoxyribonuclease I, MgCl2 or protease inhibitor and the NaCl concentration of the buffer was adjusted according to the requirements for charging the protein onto the column. Each column was eluted with a NaCl gradient which varied in length from 5-50 column volumes depending on the column type. After the final chromatography step, the resulting purity of the enzyme is >90% based on SDS-PAGE analysis. The enzyme was aliquoted and stored at −80° C.
HCVNS5B RdRp Enzyme Assay.
An on-bead solid phase homogeneous assay was used in a 384-well format to assess NS5B inhibitors (WangY-K, Rigat K, Roberts S, and Gao M (2006) Anal Biochem, 359: 106-111). The biotinylated oligo dT12 primer was captured on streptavidin-coupled imaging beads (GE, RPNQ0261) by mixing primer and beads in 1× buffer and incubating at room temperature for three hours. Unbound primer was removed after centrifugation. The primer-bound beads were resuspended in 3× reaction mix (20 mM Hepes buffer, pH 7.5, dT primer coupled beads, poly A template, ^3H-UTP, and RNAse inhibitor (Promega N2515)). Compounds were serially diluted 1:3 in DMSO and aliquoted into assay plates. Equal volumes (10 μL) of water, 3× reaction mix, and enzyme in 3× assay buffer (60 mM Hepes buffer, pH 7.5, 7.5 mM MgCl2, 7.5 mM KCl, 3 mM DTT, 0.03 mg/mL BSA, 6% glycerol) were added to the diluted compound on the assay plate. Final concentration of components in 384-well assay: 0.36 nM template, 15 nM primer, 0.29 μM ^3H-UTP (0.3 μCi), 1.6 U/μL RNAse inhibitor, 7 nM NS5B enzyme, 0.01 mg/mL BSA, 1 mM DTT, and 0.33 μg/μL beads, 20 mM Hepes buffer, pH 7.5, 2.5 mM MgCl2, 2.5 mM KCl, and 0.1% DMSO.
Reactions were allowed to proceed from 4 to 24 hours at 30° C. For 24 hour reactions, enzyme and inhibitors were pre-incubated for 24 hours before adding template and primer. Reactions were terminated by the addition of 50 mM EDTA (10 μL). After incubating for at least 15 minutes, plates were read on an Amersham LEADseeker multimodality imaging system.
IC50 values for compounds were determined using ten different [I]. IC50 values were calculated from the inhibition using the four-parameter logistic formula y=A+((B−A)/(1+((C/x)^D))), where A and B denote minimal and maximal % inhibition, respectively, C is the IC50, D is hill slope and x represents compound concentration.

In turn, `CNC(=O)c1c(-c2ccc(F)cc2)oc2cc(CCC(F)(F)F)c(-c3ccc(F)c(C(=O)NC4(c5ncccn5)CC(OC(F)(F)F)C4)c3)cc12` (single isomer, unassigned) [Example 49b, 5-(4-Fluoro-3-((1-(pyrimidin-2-yl)-3-(trifluoromethoxy)cyclobutyl)carbamoyl)phenyl)-2-(4-fluorophenyl)-N-methyl-6-(3,3,3-trifluoropropyl)benzofuran-3-carboxamide] registered an EC50 in assay [1] of 20 nM. In assay [2], the IC50 amounted to 10 nM.
On to `CNC(=O)c1c(-c2ccc(F)cc2)oc2ccc(-c3cc(C(=O)NC4(c5ncccn5)CC(=O)C4)ccc3C)c(F)c12` [Example 6, 4-Fluoro-2-(4-fluorophenyl)-N-methyl-5-(2-methyl-5-((3-oxo-1-(pyrimidin-2-yl)cyclobutyl)carbamoyl)phenyl)benzofuran-3-carboxamide], for which, in assay [1] (Hepatitis C virus, Huh-7, 72 h), it took 20 nM to reach a half-maximal effect (EC50). Moreover, the IC50 in assay [2] was found to be 10 nM.
On to `CNC(=O)c1c(-c2ccc(F)cc2)oc2cc(CCC(F)(F)F)c(-c3ccc(OC)c(C(=O)NC4(c5ncccn5)CC(OC(F)(F)F)C4)c3)cc12` (single isomer, unassigned) [Example 47b, 2-(4-Fluorophenyl)-5-(4-methoxy-3-((1-(pyrimidin-2-yl)-3-(trifluoromethoxy)cyclobutyl)carbamoyl)phenyl)-N-methyl-6-(3,3,3-trifluoropropyl)benzofuran-3-carboxamide], for which the EC50 in assay [1] turned out to be 10 nM. Further, the IC50 in assay [2] came out at 10 nM.
Take `CCCc1cc2oc(-c3ccc(F)cc3)c(C(=O)NC)c2cc1-c1ccc(OC)c(C(=O)NC2(c3ncccn3)CC(OC(F)(F)F)C2)c1` (single isomer, unassigned) [Example 51a, 2-(4-Fluorophenyl)-5-(4-methoxy-3-((1-(pyrimidin-2-yl)-3-(trifluoromethoxy)cyclobutyl)carbamoyl)phenyl)-N-methyl-6-propylbenzofuran-3-carboxamide]: the response in assay [1] (Hepatitis C virus, Huh-7, 72 h) was half-maximal at 20 nM (EC50). In assay [2], this compound returned an IC50 of 50 nM.
`CNC(=O)c1c(-c2ccc(F)cc2)oc2ccc(-c3cc(C(=O)NC4(c5ncccn5)CC(O)C4)c(OC)cc3C)c(F)c12` (single isomer, unassigned) [Example 12b, 4-Fluoro-2-(4-fluorophenyl)-5-(5-((3-hydroxy-1-(pyrimidin-2-yl)cyclobutyl)carbamoyl)-4-methoxy-2-methylphenyl)-N-methylbenzofuran-3-carboxamide]: the EC50 in assay [1] turned out to be 140 nM. The same compound had an IC50 in assay [2] of 210 nM.
The compound `CNC(=O)c1c(-c2ccc(F)cc2)oc2cc(NCC(F)(F)F)c(-c3ccc(OC)c(C(=O)NC4(c5ncccn5)CC(OC(F)F)C4)c3)cc12` (single isomer, unassigned) [Example 64b] yielded an EC50 in assay [1] of 5.97 nM. In addition, in assay [2], the midpoint of inhibition, the IC50, lay at 3.97 nM.
Regarding `CNC(=O)c1c(-c2ccc(F)cc2)oc2cc(CCC(F)(F)F)c(-c3ccc(F)c(C(=O)NC4(C)CC(OC(F)F)C4)c3)cc12` (single isomer, unassigned) [Example 63b, 5-(3-((3-(Difluoromethoxy)-1-methylcyclobutyl)carbamoyl)-4-fluorophenyl)-2-(4-fluorophenyl)-N-methyl-6-(3,3,3-trifluoropropyl)benzofuran-3-carboxamide], in assay [1], the EC50 turned out to be 10 nM. For the same compound, half-maximal inhibition in assay [2] (IC50) was put at 3.03 nM.
In the case of `CNC(=O)c1c(-c2ccc(F)cc2)oc2ccc(-c3cc(C(=O)NC4(c5ncccn5)CC(O)C4)ccc3C)c(F)c12` (single isomer, unassigned) [Example 5a, 4-Fluoro-2-(4-fluorophenyl)-5-(5-((3-hydroxy-1-(pyrimidin-2-yl)cyclobutyl)carbamoyl)-2-methylphenyl)-N-methylbenzofuran-3-carboxamide], in assay [1], the EC50 stood at 3860 nM. The IC50 in assay [2] is 1280 nM.
Compound `CNC(=O)c1c(-c2ccc(F)cc2)oc2cc(CCC(F)(F)F)c(-c3ccc(F)c(C(=O)NC4(c5ncccn5)CC(OC(F)F)C4)c3)cc12` (stereo not drawn) [Example 42, 5-(3-((3-(Difluoromethoxy)-1-(pyrimidin-2-yl)cyclobutyl)carbamoyl)-4-fluorophenyl)-2-(4-fluorophenyl)-N-methyl-6-(3,3,3-trifluoropropyl)benzofuran-3-carboxamide] came in with an EC50 in assay [1] (Hepatitis C virus, Huh-7, 72 h) of 5.73 nM. This compound showed an IC50 in assay [2] of 7.6 nM.
As to `CCCc1cc2oc(-c3ccc(F)cc3)c(C(=O)NC)c2cc1-c1ccc(F)c(C(=O)NC2(c3ncccn3)CC(OC(F)(F)F)C2)c1` (single isomer, unassigned) [Example 48b, 5-(4-Fluoro-3-((1-(pyrimidin-2-yl)-3-(trifluoromethoxy)cyclobutyl)carbamoyl)phenyl)-2-(4-fluorophenyl)-N-methyl-6-propylbenzofuran-3-carboxamide], a half-maximal effect in assay [1] (EC50) was put at 10 nM. In addition, the IC50 in assay [2] was determined as 8.27 nM.
The compound `CNC(=O)c1c(-c2ccc(F)cc2)oc2ccc(-c3cc(C(=O)NC4(c5ncccn5)CC(OC)C4)ccc3C)c(F)c12` (single isomer, unassigned) [Example 10a, 4-Fluoro-2-(4-fluorophenyl)-5-(5-((3-methoxy-1-(pyrimidin-2-yl)cyclobutyl)carbamoyl)-2-methylphenyl)-N-methylbenzofuran-3-carboxamide] yielded an EC50 in assay [1] of 30 nM. Also, the IC50 in assay [2] stood at 60 nM.
Taken in the same sequence, the figures for `CNC(=O)c1c(-c2ccc(F)cc2)oc2cc(NCC(F)(F)F)c(-c3cccc(C(=O)NC4(c5ncccn5)CC(OC(F)F)C4)c3)cc12` (single isomer, unassigned) [Example 65a] were 8.72 nM and 4.55 nM.
Taken in the same sequence, the figures for `CNC(=O)c1c(-c2ccc(F)cc2)oc2cc(CCC(F)(F)F)c(-c3cccc(C(=O)NC4(C)CC(OC(F)F)C4)c3)cc12` (single isomer, unassigned) [Example 59b, 5-(3-((3-(Difluoromethoxy)-1-methylcyclobutyl)carbamoyl)phenyl)-2-(4-fluorophenyl)-N-methyl-6-(3,3,3-trifluoropropyl)benzofuran-3-carboxamide] were 20 nM and 10 nM.
Turning to `CNC(=O)c1c(-c2ccc(F)cc2)oc2cc(NCC(F)(F)F)c(-c3cccc(C(=O)NC4(c5ncccn5)CC(OC(F)F)C4)c3)cc12` (single isomer, unassigned) [Example 65b], in assay [1], the EC50 stood at 4.23 nM. For the same compound, the midpoint of inhibition in assay [2], the IC50, lay at 4.73 nM.
`CNC(=O)c1c(-c2ccc(F)cc2)oc2ccc(-c3cc(C(=O)NC4(c5ncccn5)CC(OC)C4)cc(F)c3C)c(F)c12` (single isomer, unassigned) [Example 11b, 4-Fluoro-5-(3-fluoro-5-((3-methoxy-1-(pyrimidin-2-yl)cyclobutyl)carbamoyl)-2-methylphenyl)-2-(4-fluorophenyl)-N-methylbenzofuran-3-carboxamide] yielded an EC50 in assay [1] of 4.56 nM. The compound further returned an IC50 in assay [2] of 30 nM.

What is called EC50 is the concentration giving half of the maximal effect. The term IC50 denotes the concentration at which inhibition is half-maximal. A high value points to weaker potency in that assay.
